According to patent US9409891B2, “Solid forms of an antiviral compound” (Gilead Sciences, Inc., priority 2012, dated 2016):
Values after ≈ are worked out from the molar mass of the structure shown. “Also recorded” adds a separate entry of the source.

Key:
Type in all cases: physicochemical
[1] = Follow-up stable form screening (Form II stirred in solvents at about 22° C.); details: for 2-Week Form / 24 h Form: Form II stirred at about 22° C.; for solubility: about 22° C., Form II start
Description: In the follow-up stable form screening experiments, the starting materials were Form II. The solids were stirring in the solvents list below at about 22° C. in 2 ml vials.

[2] = Stable form competition study in ACN; details: Forms I through V added to high concentration solution of amorphous Compound I in ACN, stirred overnight
Description: To further verify the stability of Form II, competitive crystallization was conducted by adding Forms I through V into a high concentration solution of amorphous Compound I in ACN. […] The mother liquor obtained, which was saturated in terms of Form II, was used in another test in which other forms (Forms I, III, IV and V) were added.

[3] = Hydrate screening, ACN/water system
[4] = Hydrate screening, EtOH/water system; details: ethanol/water
Text: When the organic component used in the solvent mixture forms solvate with Compound I, potential hydrates may not show up in the slurry screen, as shown in the hydrate screening using ethanol/water mixtures (Table 4). Form IX is a new form found in this study.

[5] = Form II stability in water at elevated temperature (slurry, XRPD)
Description: During formulation, Compound I may be wet granulated and dried at <50° C. A slurry of Form II in water was stirred at 48° C. (50° C. jacket) and was sampled periodically for XRPD analysis to determine Form I content.

[6] = Stability and hygroscopicity under ambient conditions
[7] = Seeding of Compound I solution in DIPE with Form VI; details: Compound I solution in DIPE seeded with Form VI; only Form II obtained
Description: In an attempt crystallize Form VI, the solution of Compound I in DIPE was seeded with Form VI. However, only Form II was obtained.

[8] = water content 10%, water activity 0.510
[9] = water content 20%, water activity 0.654

CC1=CC[C@H](C(=O)N(c2cc(C#CC(C)(C)C)sc2C(=O)O)[C@H]2CC[C@](O)(CO[C@H]3CCOC3)CC2)CC1 (relative stereo) [Form II, 5-(3,3-dimethylbutyn-1-yl)-3-[(cis-4-hydroxy-4-{[(3S)-tetrahydrofuran-3-yloxy]methyl}cyclohexyl){[(1R)-4-methylcyclohex-3-en-1-yl]carbonyl}amino]thiophene-2-carboxylic acid]
2-Week Form ([1]; 2 Me-THF): solution | 24 h Form ([1]; 2 Me-THF): solution | solubility ([1]; 2 Me-THF, solution): >334 mg/mL | solubility ([1]; ACN/water (50/50)): 18 mg/mL (≈ 33.1 mM) | solubility ([1]; ACN): 6 mg/mL (≈ 11 mM) | solubility ([1]; Acetone): 241 mg/mL (≈ 443 mM) | 2-Week Form ([1]; DCM): solution | 24 h Form ([1]; DCM): solution | solubility ([1]; DCM, solution): >274 mg/mL | solubility ([1]; Ethyl Acetate): 124 mg/mL (≈ 228 mM) | solubility ([1]; Heptane): 0.05 mg/mL (≈ 0.092 mM) | solubility ([1]; Isopropyl Acetate): 59 mg/mL (≈ 109 mM) | solubility ([1]; MIBK): 116 mg/mL (≈ 213 mM) | 2-Week Form ([1]; MeOH): solution | 24 h Form ([1]; MeOH): solution | solubility ([1]; MeOH, solution): >321 mg/mL | solubility ([1]; Methyl t-butyl ether): 108 mg/mL (≈ 199 mM) | 2-Week Form ([1]; THF): solution | 24 h Form ([1]; THF): solution | solubility ([1]; THF, solution): >346 mg/mL | solubility ([1]; Toluene): 40 mg/mL (≈ 73.6 mM) | 24 h Form ([1]; Water): II + I | Stability of Form II in tested solvents (summary of Table 2) ([1]; stirred at about 22° C., up to 2 weeks): stable in most tested solvents except for alcohols, water, and MEK | Form detected after competitive crystallization [2]: the only detected form | Equivalent RH up to which Form II is stable ([3]; 22° C.): ≤ 86.3 % RH | Water activity up to which Form II is stable ([3]; 22° C.): up to 0.863 | Form at 2 weeks ([3]; water content 30%, water activity 0.896, 22° C.): VIII | Form at 2 weeks ([3]; water content 32%, water activity 0.9, 22° C.): VIII | Form at 2 weeks ([3]; water content 40%, water activity 0.914, 22° C.): VIII | Form at 2 weeks ([3]; water content 50%, water activity 0.926, 22° C.): VIII | Form at 24 h or 90 h ([3]; water content 50%, water activity 0.926, 90 h, 22° C.): II + small | Form at 2 weeks ([3]; water content 60%, water activity 0.936, 22° C.): VIII | Form at 24 h or 90 h ([3]; water content 60%, water activity 0.936, 90 h, 22° C.): VIII + small | Form at 2 weeks ([3]; water content 70%, water activity 0.943, 22° C.): VIII | Form at 2 weeks ([3]; water content 80%, water activity 0.949, 22° C.): II + VIII | Form at 24 h or 90 h ([3]; water content 80.9%, water activity 0.950, 24 h, 22° C.): I + II | Form at 24 h or 90 h ([3]; water content 100%, water activity 1, 24 h, 22° C.): I + II | Form at 2 weeks [4, 8]: solution | Form at 90 hours [4, 8]: solution | Form at 2 weeks [4, 9]: solution | Form at 90 hours [4, 9]: solution | Form at 90 hours ([4]; water content 50%, water activity 0.806): III + small | Form conversion in water ([5]; Form II in water at 48° C.): slowly converted to Form I; also recorded: converts slowly to Form I | Form I content by XRPD ([5]; Form II slurry in water, 48° C. (50° C. jacket), 6 hour point): not detected | Form by XRPD ([5]; Form II slurry in water, 48° C., after 30 hours): Form I became the dominant form | Stability and hygroscopicity [6]: stable and non-hygroscopic | Relative stability of forms [7]: more stable than Form VI
